Experimental data reported in patent US11083718B2, “Betahistine, or a pharmaceutically acceptable salt thereof, and a monoamine oxidase inhibitor, for use in the treatment or prevention of one or more symptoms of vertigo in a subject” (INTRABIO LTD, priority 2017, dated 2021).
Several values for one entry are separate records, joined by “and”; a condition that tells them apart may be missing. Equal values may be shown once.

Legend:
[1] = cited from earlier work
[2] = system: vertigo episodes related to Menière's disease; settings: daily doses 2×24 mg or 3×48 mg; nine months; cited from earlier work
[3] = system: acute attacks of vertigo in patients with Menière's disease; assay: Observational study: high-dosage betahistine monotherapy versus lower-dosage betahistine plus selegiline; type: in vivo, human
Procedure: Betahistine dihydrochloride tablets were obtained from Abbott (Vasomotol 24 mg tablets). Selegiline hydrochloride tablets were obtained from Hexal.
Studies by the Applicant investigated the benefits of a high-dosage betahistine monotherapy compared with those of a lower dosage of betahistine in combination with the MAO B inhibitor (MAO-B) selegiline on the frequency of acute attacks of vertigo in patients with Menière's disease (MD).
More specifically, studies investigated the effect of combination therapy in 13 subjects receiving 5 mg per day selegiline hydrochloride (either as one tablet at night, or half a tablet in the morning and half a tablet at night), in conjunction with varying amounts of betahistine dihydrochloride per day (amounts ranging from n=3 to 36, where n is the number of 24 mg tablets per day). All subjects had previously received treatment with betahistine dihydrochloride monotherapy (in amounts ranging from n=9 to 80, where n is the number of 24 mg tablets per day), and the number of vertigo attacks per month were recorded during a three month period of monotherapy prior to commencement of combination treatment. Following combination treatment, the subjects then recorded the number of vertigo attacks per month during the last two months of combination treatment.
The 13 patients in this observational study fulfilled the current diagnostic criteria of MD [48]. Patients with the diagnosis of other peripheral or central vestibular disorders, such as vestibular migraine, benign paroxysmal positional vertigo, paroxysmal brainstem attacks, or functional dizziness, were not included. Patients suffering from known contraindications or hypersensitivity to betahistine, such as bronchial asthma, pheochromocytoma, or treatment with other antihistaminic drugs, ulcer of the stomach or duodendum, or severe dysfunction of liver or kidney were also not treated with betahistine. Patients with known contraindications (e.g., use of meperidine or other opioids, tricyclic antidepressants or non-selective MAOls, selective serotonin re-uptake inhibitors) or hypersensitivity to selegiline were not treated with this agent.
Based on the results of the BEMED trial (showing that betahistine 48 mg tid is evidently not effective) the study initially started with a dosage of 96 mg tid in all patients. During the three- to six-monthly follow-up examinations the daily dosages were adjusted according to the patient's response (approach: “titration” of attacks of vertigo). Patients had been treated for at least 18 months with high dosages of betahistine-dihydrochloride and had ≤1 attacks for at least three months. An initial dosage of 5 mg/day selegiline hydrochloride was chosen (approved dosage for Parkinson's disease is 5 to 10 mg/d). In parallel the dosage of betahistine was reduced to about a tenth of the initial dosage. The design of the observational study was approved by the local ethics committee. Follow-up examinations were after 1 month and then every 3 months to check the efficacy of the treatment and the side-effects and to adjust the betahistine dosage if necessary. Ideally, the objective was to achieve ≤1 attack per three months.

patients with fullness of the stomach ([3]; 216 to 1920 mg per day, 13 patients): 4 patients
Structure (SMILES): CNCCc1ccccn1 [betahistine, 2-[2-(methylamino)ethyl]pyridine]
plasma concentrations ([1]; betahistine without MAO inhibitor): less than 0.5 ng/ml
first-pass effect ([1]; normally almost complete): 99%
effect on time course of vertigo episodes compared with placebo [2]: does not change the time course of vertigo episodes
daily betahistine-dihydrochloride dosage required to achieve a treatment response, mean ([3]; 13 patients): 895.4 mg/day
daily betahistine-dihydrochloride dosage required to achieve a treatment response, mean in tablets ([3]; 13 patients): 37.3 24-mg tablets per day
mean daily dosage of betahistine-dihydrochloride to respond to treatment (≤1 attack per three months), FIG. 1 ([3]; 13 patients, per day): 895.4 mg
tolerability ([3]; 216 to 1920 mg per day): well tolerated
Dosage of betahistine (monotherapy) required that the patient had a significant effect before the combined treatment ([3]; individual patients 1-13 with Menière's disease, tablets per day): 80 n of 24-mg tablets and 30 n of 24-mg tablets (3×) and 9 n of 24-mg tablets and 36 n of 24-mg tablets and 60 n of 24-mg tablets (2×) and 24 n of 24-mg tablets and 18 n of 24-mg tablets (2×) and 50 n of 24-mg tablets and 40 n of 24-mg tablets
